Assay results from patent publication US20200024278A1, “COMPOSITION COMPRISING ANTIBIOTIC COMPOUND AND AN HETEROCYCLIC COMPOUND AND THEIR USE IN PREVENTING OR TREATING BACTERIAL INFECTIONS” (MUTABILIS, priority 2016, published 2020).

Experiments:
Experiment in all cases: MIC, broth microdilution (CLSI), substance alone or ATB combined with compound at 4 or 8 μg/mL
PAE UFR90 = assay type: cell-based, P. aeruginosa; settings: PAE UFR90; for MIC ATB combined with compound: compound @4 μg/ml
How it was run: (§1)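 Broth microdilution; ca-MHB; 5·10^5 CFU/mL; 35° C, 16-20 h; compound alone or fixed 4/8 μg/mL with antibiotic series; endpoint = no visible growth.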

PAE 105250 = assay type: cell-based, P. aeruginosa; settings: PAE 105250; for MIC ATB combined with compound: compound @4 μg/ml
How it was run: as §1

PAE UFR48 = assay type: cell-based, P. aeruginosa; settings: PAE UFR48; for MIC ATB combined with compound: compound @4 μg/ml
How it was run: as §1

KPN BAA-1898 = assay type: cell-based, K. pneumoniae; settings: KPN BAA-1898; for MIC ATB combined with compound: compound @4 μg/ml
How it was run: as §1

KPN UFR42 = assay type: cell-based, K. pneumoniae; settings: KPN UFR42; for MIC ATB combined with compound: compound @4 μg/ml
How it was run: as §1

KPN 6299 = assay type: cell-based, K. pneumoniae; settings: compound @4 μg/ml
How it was run: as §1

ECO UFR39 = assay type: cell-based, E. coli; settings: ECO UFR39; for MIC ATB combined with compound: compound @4 μg/ml
How it was run: as §1

ECO 190317 = assay type: cell-based, E. coli; settings: ECO 190317; for MIC ATB combined with compound: compound @4 μg/ml
How it was run: as §1

SPN 49619 = assay type: cell-based, S. pneumoniae; settings: SPN 49619; for MIC ATB combined with compound: compound @4 μg/ml
How it was run: as §1

SAU 29213 = assay type: cell-based, S. aureus; settings: for MIC ATB combined with compound: compound @4 μg/ml, SAU 29213
How it was run: as §1

ECL P99 = assay type: cell-based, E. cloacae; settings: ECL P99; for MIC ATB combined with compound: compound @4 μg/ml
How it was run: as §1

NC[C@@H]1CC(=NOCC(N)=O)[C@@H]2CN1C(=O)N2OS(=O)(=O)[O-].O=C(O)C(F)(F)F.[Na+] [Example 4, 2,2,2-trifluroacetate and sodium [(2S,5S)-4-(2-amino-2-oxo-ethoxy)imino-2-(azaniumylmethyl)-7-oxo-1,6-diazabicyclo[3.2.1]octan-6-yl] sulfate]
MIC ATB combined with compound (PAE UFR90; ATB ATM): <0.031 µg/mL
MIC ATB combined with compound (PAE UFR90; ATB FEP): <0.031 µg/mL
MIC ATB combined with compound (PAE UFR90; ATB FOS): <0.125 µg/mL
MIC ATB combined with compound (PAE UFR90; ATB MEM): <0.031 µg/mL
MIC ATB combined with compound (PAE UFR90; ATB PIP): <0.031 µg/mL
MIC (PAE UFR90; substance alone): 2 µg/mL
MIC ATB combined with compound (PAE 105250; ATB ATM): <0.031 µg/mL
MIC ATB combined with compound (PAE 105250; ATB FEP): <=0.031 μg/mL
MIC ATB combined with compound (PAE 105250; ATB FOS): 8 µg/mL
MIC ATB combined with compound (PAE 105250; ATB MEM): <0.031 µg/mL
MIC ATB combined with compound (PAE 105250; ATB PIP): <=0.031 μg/mL
MIC (PAE 105250; substance alone): 32 µg/mL
MIC ATB combined with compound (PAE UFR48; ATB ATM): <0.031 µg/mL
MIC ATB combined with compound (PAE UFR48; ATB FEP): <0.031 µg/mL
MIC ATB combined with compound (PAE UFR48; ATB FOS): <0.125 µg/mL
MIC ATB combined with compound (PAE UFR48; ATB MEM): <0.031 µg/mL
MIC ATB combined with compound (PAE UFR48; ATB PIP): <0.031 µg/mL
MIC (PAE UFR48; substance alone): 4 µg/mL
MIC ATB combined with compound (KPN BAA-1898; ATB ATM): 8 µg/mL
MIC ATB combined with compound (KPN BAA-1898; ATB FEP): 0.5 µg/mL
MIC ATB combined with compound (KPN BAA-1898; ATB FOS): 32 µg/mL
MIC ATB combined with compound (KPN BAA-1898; ATB MEM): 0.5 µg/mL
MIC ATB combined with compound (KPN BAA-1898; ATB PIP): >32 µg/mL
MIC (KPN BAA-1898; substance alone): >32 µg/mL
MIC ATB combined with compound (KPN UFR42; ATB ATM): 1 µg/mL
MIC ATB combined with compound (KPN UFR42; ATB FEP): >32 µg/mL
MIC ATB combined with compound (KPN UFR42; ATB FOS): 32 µg/mL
MIC ATB combined with compound (KPN UFR42; ATB MEM): >32 µg/mL
MIC ATB combined with compound (KPN UFR42; ATB PIP): >32 µg/mL
MIC (KPN UFR42; substance alone): >32 µg/mL
MIC ATB combined with compound (KPN 6299; ATB ATM): 0.063 µg/mL
MIC ATB combined with compound (KPN 6299; ATB FEP): 0.125 µg/mL
MIC ATB combined with compound (KPN 6299; ATB FOS): 64 µg/mL
MIC ATB combined with compound (KPN 6299; ATB MEM): 0.25 µg/mL
MIC ATB combined with compound (KPN 6299; ATB PIP): 4 µg/mL
MIC ATB combined with compound (ECO UFR39; ATB ATM): <0.031 µg/mL
MIC ATB combined with compound (ECO UFR39; ATB FEP): <0.031 µg/mL
MIC ATB combined with compound (ECO UFR39; ATB FOS): <0.125 µg/mL
MIC ATB combined with compound (ECO UFR39; ATB MEM): <0.031 µg/mL
MIC ATB combined with compound (ECO UFR39; ATB PIP): 0.063 µg/mL
MIC (ECO UFR39; substance alone): 0.25 µg/mL
MIC ATB combined with compound (ECO 190317; ATB ATM): <0.031 µg/mL
MIC ATB combined with compound (ECO 190317; ATB FEP): <0.031 µg/mL
MIC ATB combined with compound (ECO 190317; ATB FOS): <0.125 µg/mL
MIC ATB combined with compound (ECO 190317; ATB MEM): <0.031 µg/mL
MIC ATB combined with compound (ECO 190317; ATB PIP): <0.031 µg/mL
MIC (ECO 190317; substance alone): 0.25 µg/mL
MIC ATB combined with compound (SPN 49619; ATB ATM): >32 µg/mL
MIC ATB combined with compound (SPN 49619; ATB FEP): 0.063 µg/mL
MIC ATB combined with compound (SPN 49619; ATB FOS): 32 µg/mL
MIC ATB combined with compound (SPN 49619; ATB MEM): 0.063 µg/mL
MIC ATB combined with compound (SPN 49619; ATB PIP): 0.5 µg/mL
MIC (SPN 49619; substance alone): 32 µg/mL
MIC ATB combined with compound (SAU 29213; ATB ATM): >32 µg/mL
MIC ATB combined with compound (SAU 29213; ATB FEP): 4 µg/mL
MIC ATB combined with compound (SAU 29213; ATB FOS): 2 µg/mL
MIC ATB combined with compound (SAU 29213; ATB MEM): 0.125 µg/mL
MIC ATB combined with compound (SAU 29213; ATB PIP): 4 µg/mL
MIC (SAU 29213; substance alone, SAU 29213 (MSSA 29213)): >32 µg/mL
MIC ATB combined with compound (ECL P99; ATB ATM): <0.031 µg/mL
MIC ATB combined with compound (ECL P99; ATB FEP): <0.031 µg/mL
MIC ATB combined with compound (ECL P99; ATB FOS): <0.125 µg/mL
MIC ATB combined with compound (ECL P99; ATB MEM): <0.031 µg/mL
MIC ATB combined with compound (ECL P99; ATB PIP): <=0.031 μg/mL
MIC (ECL P99; substance alone): 0.063 µg/mL
